Drawing on PubChem BioAssay (NCI), this text covers TGI for 17 compounds.

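Test compounds were applied to cells in 96-well plates for 48 hours at 5 doses. The concentration for full growth arrest is given as TGI.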 Some results are limits rather than exact numbers.

Among the test systems are MDA-N; U251 CNS; OVCAR-5 ovarian; SK-MEL-28 melanoma; HCC-2998 colon; MCF7 breast; NCI/ADR-RES ovarian; T-47D breast.
What all share (test): DTP human tumour cell line panel, 48 h

Usually TGI stands for the concentration at which net growth stops. High values mean lower sensitivity of the cells, low ones greater sensitivity of the cells.

For the compound `Cc1cc(O)c(-c2cc(O)c(C)cc2O)cc1O`, the TGI in the test on MDA-N came to 22.9 µM; in the test on U251 CNS, 30.3 µM; in the test on OVCAR-5 ovarian, 32.9 µM; in the test on SK-MEL-28 melanoma, 22.7 µM; in the test on HCC-2998 colon it was 27.3 µM; in the test on MCF7 breast, 47.6 µM. Also, the TGI in the test on NCI/ADR-RES ovarian is 97.1 µM; in the test on T-47D breast, 5.26 µM.
For `CC(=O)n1nc(-c2ccccc2)n(/N=C/c2ccc([N+](=O)[O-])o2)c1=O`, the TGI with MDA-N worked out at 3.92 µM; with U251 CNS, 33.4 µM; in the test on OVCAR-5 ovarian, 10.2 µM; in the test on SK-MEL-28 melanoma it was 22.3 µM; in the test with HCC-2998 colon, 19.1 µM; in the test on MCF7 breast, 13.8 µM. In addition, the TGI with NCI/ADR-RES ovarian was 27.5 µM; in the test on T-47D breast, 44.5 µM.
As for `O=[N+]([O-])c1cc(Cl)ccc1Sc1ccccc1`, the TGI in the test with MDA-N, in the test on U251 CNS, with OVCAR-5 ovarian, in the test on SK-MEL-28 melanoma, in the test on HCC-2998 colon and in the test on MCF7 breast was over 100 µM throughout. Also, the TGI in the test on NCI/ADR-RES ovarian and in the test on T-47D breast was over 100 µM throughout.
For the compound `Cc1cc(NS(=O)(=O)c2ccc(NC(NC(=O)C(C(F)(F)F)C(F)(F)F)(C(F)(F)F)C(F)(F)F)cc2)no1`, the TGI with MDA-N, in the test on U251 CNS, in the test with OVCAR-5 ovarian, with SK-MEL-28 melanoma, in the test on HCC-2998 colon and in the test on MCF7 breast was over 100 µM in each case. The TGI in the test on NCI/ADR-RES ovarian and in the test with T-47D breast was over 100 µM in each case.
Regarding `COC(=O)N1N=C(c2ccccc2)C1c1ccccc1` (stereo not drawn), the TGI in the test on MDA-N, in the test with U251 CNS, in the test with OVCAR-5 ovarian, in the test with SK-MEL-28 melanoma, in the test with HCC-2998 colon and with MCF7 breast was over 100 µM each time. The TGI in the test with NCI/ADR-RES ovarian is 69.2 µM; in the test with T-47D breast, over 100 µM.
As for `Nc1nc(Nc2ccccc2)sc1C(=O)c1ccco1`, the TGI is 33.9 µM in the test with MDA-N; over 100 µM in the test on U251 CNS; 71.5 µM with OVCAR-5 ovarian; 67.1 µM in the test with SK-MEL-28 melanoma; 26.3 µM in the test with MCF7 breast; 65.5 µM with NCI/ADR-RES ovarian. The compound further had a TGI with T-47D breast of 41.4 µM.
Regarding `C[C@H]1[C@H](C)CC[C@]2(C(=O)OC3OC(CO)C(O)C(O)C3O)CC[C@]3(C)C(=CC[C@@H]4[C@@]5(C)C[C@H]6OC(=O)c7cc(O)c(O)c(O)c7-c7c(cc(O)c(O)c7O)C(=O)O[C@@H]6C(CO)(CO)[C@@H]5CC[C@]43C)[C@H]12` (stereo partly drawn), the TGI was 72.7 µM in the test with MDA-N; 42.2 µM with U251 CNS; over 100 µM in the test on OVCAR-5 ovarian; over 100 µM in the test with SK-MEL-28 melanoma; over 100 µM in the test on HCC-2998 colon; 38.5 µM in the test with MCF7 breast. Also, the TGI in the test with NCI/ADR-RES ovarian and in the test on T-47D breast was over 100 µM throughout.
As to `Clc1nncc2sc(-c3ccccc3)nc12`, the TGI is 51.4 µM in the test on MDA-N; over 53.2 µM with U251 CNS; over 100 µM in the test on OVCAR-5 ovarian; over 50.8 µM with SK-MEL-28 melanoma; over 45.7 µM in the test on HCC-2998 colon; over 92.6 µM in the test with MCF7 breast. Also, the results for the TGI with NCI/ADR-RES ovarian and in the test on T-47D breast were 69.1 µM and over 100 µM, respectively.
On to `CC1(C)CC(C#Cc2ccccc2)CC(C)(C)N1O`, for which the total growth inhibition concentration (TGI) in the test with MDA-N came to 29.9 µM; in the test on U251 CNS, 64.6 µM; in the test on OVCAR-5 ovarian, 44.2 µM; in the test with SK-MEL-28 melanoma, 32.8 µM; in the test with HCC-2998 colon, 32.2 µM; in the test with MCF7 breast, 36.3 µM. The values for the TGI in the test with NCI/ADR-RES ovarian and in the test with T-47D breast were 73.8 µM and 63.8 µM, respectively.
For `O=S1SC(=S)C2C=CC=CC21` (stereo not drawn), the TGI with MDA-N, with U251 CNS, in the test on OVCAR-5 ovarian, in the test with SK-MEL-28 melanoma, in the test with HCC-2998 colon and in the test on MCF7 breast was over 100 µM each time. Also, the concentration for total growth inhibition (TGI) in the test on NCI/ADR-RES ovarian and in the test with T-47D breast was over 100 µM each time.
With `CCOC(=O)NC(Nc1c(F)c(F)c(F)c(F)c1F)(C(F)(F)F)C(F)(F)F`, the TGI with MDA-N, with U251 CNS, in the test on OVCAR-5 ovarian, with SK-MEL-28 melanoma, with HCC-2998 colon and with MCF7 breast was over 100 µM throughout. Also, the TGI in the test with NCI/ADR-RES ovarian and in the test on T-47D breast was over 100 µM throughout.
In the case of `COc1cc([N+](=O)[O-])c(OC)c2c(Nc3ccc(S(=O)(=O)O)c4cc(S(=O)(=O)O)cc(S(=O)(=O)O)c34)cc(C)nc12`, the TGI with MDA-N, in the test with U251 CNS, with OVCAR-5 ovarian, in the test with SK-MEL-28 melanoma, with MCF7 breast and in the test on NCI/ADR-RES ovarian was over 100 µM each time. The compound further had a TGI in the test on T-47D breast of over 100 µM.
For the compound `O=C1C(C(O)(C(F)(F)F)C(F)(F)F)CCC1C(O)(C(F)(F)F)C(F)(F)F` (stereo not drawn), the TGI in the test on MDA-N was over 81.8 µM; in the test with U251 CNS, 99.5 µM; in the test on OVCAR-5 ovarian it was over 100 µM; in the test with SK-MEL-28 melanoma, over 73.2 µM; with MCF7 breast it was 2.26 µM; in the test with NCI/ADR-RES ovarian, 32.6 µM. Moreover, the concentration for total growth inhibition (TGI) in the test on T-47D breast is 2.13 µM.
Turning to `CON(C)C(=O)C1CCCO1` (stereo not drawn), the TGI with MDA-N, in the test on U251 CNS, in the test on OVCAR-5 ovarian, with SK-MEL-28 melanoma, in the test on MCF7 breast and in the test with NCI/ADR-RES ovarian was over 100 µM throughout. In the test with T-47D breast, this compound returned a TGI of over 100 µM.
Take `COP(=O)(OC)C(Nc1ccc(Cc2ccc(NC(c3ccco3)P(=O)(OC)OC)cc2)cc1)c1ccco1` (stereo not drawn): the TGI with MDA-N was over 100 µM; in the test with U251 CNS it was 21.4 µM; in the test with OVCAR-5 ovarian, over 100 µM; in the test with SK-MEL-28 melanoma, over 100 µM; in the test on MCF7 breast, over 100 µM; in the test on NCI/ADR-RES ovarian, over 100 µM. Further, in the test with T-47D breast, the TGI is over 100 µM.
On to `C[n+]1c(/C=C/c2ccc(O)c3ncccc23)[se]c2ccccc21`, for which the TGI was determined as 25.4 µM with MDA-N; 16.3 µM in the test on U251 CNS; 40.4 µM with OVCAR-5 ovarian; 52.9 µM in the test with SK-MEL-28 melanoma; 14.8 µM in the test with MCF7 breast; 28.7 µM in the test with NCI/ADR-RES ovarian. In addition, in the test with T-47D breast, the TGI was over 41.8 µM.
`CN1CCN(C2=C(Cl)C3(OCCS3)C(F)(F)C2(F)F)CC1` (stereo not drawn): the TGI in the test with MDA-N, in the test on U251 CNS, in the test with OVCAR-5 ovarian, with MCF7 breast, with NCI/ADR-RES ovarian and in the test on T-47D breast was over 100 µM throughout.
